US20260193264A1, “BENZOYPARAZINE PYRAZINES AND THEIR USES” (FOGHORN THERAPEUTICS INC., priority 2022, published 2026)
One block for each compound: values may come before it.

Columns and labels:
[1] = molecular target: T1, HiBiT-BRM fusion protein in stable HeLa cell line (Homo sapiens, UniProt P51531); test: HiBiT-BRM cell-based degradation assay (Nano-Glo HiBiT Lytic Detection, 24 h); design: DC50: scale not given here; conditions: HeLa HiBiT-BRM cells; for DC50: read-out: BRM HiBit Degradation IC50; for BRM HiBit Degradation Maximum (%): top dose 30 μM
T1 construct: expressed in transfected cells
How it was run: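 HiBiT-tagged BRM levels in a stable HeLa line are measured after one day of compound treatment (up to 30 μM final, duplicate 10-point curves) by adding LgBiT lytic reagent and reading bioluminescence; values are expressed relative to vehicle and a 2 μM degrader control.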

[2] = molecular target: T2, HiBit-BRG1 fusion protein in stable HeLa cell line expressing HiBit-BRG1 and LgBit (Homo sapiens, UniProt P51532); test: HiBiT-BRG1 cell-based degradation assay (Nano-Glo HiBiT, 24 h); conditions: HeLa HiBit-BRG1/LgBit cells; for DC50: read-out: BRMG1 HiBit Degradation IC50; for Dmax: top dose 30 μM, read-out: BRG1 HiBit Degradation Maximum (%)
T2 construct: expressed in transfected cells
How it was run: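 Degradation calculated from NanoBiT luminescence relative to DMSO-treated cells (high) and cells given 2 μM known BRM/BRG1 degrader (low). HeLa cells stably expressing HiBiT-BRG1 plus LgBiT were exposed to compound for 24 h before lytic HiBiT detection.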

T2 sequence (P51532 whole entry, the tested form may be a part): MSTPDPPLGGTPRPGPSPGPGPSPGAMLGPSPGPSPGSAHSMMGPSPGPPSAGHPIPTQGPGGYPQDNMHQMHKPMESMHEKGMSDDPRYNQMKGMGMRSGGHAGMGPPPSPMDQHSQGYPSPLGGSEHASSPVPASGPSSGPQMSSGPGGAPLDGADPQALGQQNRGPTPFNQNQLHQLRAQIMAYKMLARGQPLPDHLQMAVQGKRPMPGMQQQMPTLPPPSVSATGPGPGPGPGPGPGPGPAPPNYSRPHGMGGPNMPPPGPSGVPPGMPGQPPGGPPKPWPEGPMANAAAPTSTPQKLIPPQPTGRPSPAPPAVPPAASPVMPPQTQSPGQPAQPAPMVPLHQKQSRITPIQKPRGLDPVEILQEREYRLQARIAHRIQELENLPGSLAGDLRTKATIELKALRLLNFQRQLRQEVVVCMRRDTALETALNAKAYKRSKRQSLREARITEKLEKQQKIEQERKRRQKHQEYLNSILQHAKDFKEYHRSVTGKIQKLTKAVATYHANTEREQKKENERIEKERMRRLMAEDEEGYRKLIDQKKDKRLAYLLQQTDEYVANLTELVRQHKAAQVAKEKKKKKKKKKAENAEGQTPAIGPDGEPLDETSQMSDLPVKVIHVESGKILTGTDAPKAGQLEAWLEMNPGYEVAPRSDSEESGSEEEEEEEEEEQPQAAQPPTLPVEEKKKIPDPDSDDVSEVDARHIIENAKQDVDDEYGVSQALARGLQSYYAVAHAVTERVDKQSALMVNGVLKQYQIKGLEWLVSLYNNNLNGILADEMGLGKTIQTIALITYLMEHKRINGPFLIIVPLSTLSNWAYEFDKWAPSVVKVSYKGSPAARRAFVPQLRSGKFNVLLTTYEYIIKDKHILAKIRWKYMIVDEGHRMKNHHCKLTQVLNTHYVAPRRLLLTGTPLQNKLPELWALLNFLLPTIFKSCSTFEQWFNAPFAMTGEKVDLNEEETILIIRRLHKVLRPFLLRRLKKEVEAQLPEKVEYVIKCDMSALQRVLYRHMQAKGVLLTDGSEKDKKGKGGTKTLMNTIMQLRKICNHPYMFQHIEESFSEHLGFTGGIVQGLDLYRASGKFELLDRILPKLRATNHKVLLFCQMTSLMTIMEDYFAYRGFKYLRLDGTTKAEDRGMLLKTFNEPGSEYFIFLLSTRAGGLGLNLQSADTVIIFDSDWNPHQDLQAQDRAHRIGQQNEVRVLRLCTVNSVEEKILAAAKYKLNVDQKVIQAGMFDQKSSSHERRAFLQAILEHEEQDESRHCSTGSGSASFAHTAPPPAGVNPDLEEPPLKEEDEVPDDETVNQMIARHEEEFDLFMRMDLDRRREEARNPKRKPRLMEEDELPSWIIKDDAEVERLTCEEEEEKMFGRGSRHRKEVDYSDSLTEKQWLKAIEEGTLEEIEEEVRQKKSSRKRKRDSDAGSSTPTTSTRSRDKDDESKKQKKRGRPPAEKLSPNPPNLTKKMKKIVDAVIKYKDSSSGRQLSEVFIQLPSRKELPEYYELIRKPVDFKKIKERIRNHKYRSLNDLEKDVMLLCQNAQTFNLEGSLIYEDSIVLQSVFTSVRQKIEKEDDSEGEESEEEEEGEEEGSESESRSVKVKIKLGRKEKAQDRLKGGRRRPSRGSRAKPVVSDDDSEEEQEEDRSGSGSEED
T1 sequence (P51531 whole entry, the tested form may be a part): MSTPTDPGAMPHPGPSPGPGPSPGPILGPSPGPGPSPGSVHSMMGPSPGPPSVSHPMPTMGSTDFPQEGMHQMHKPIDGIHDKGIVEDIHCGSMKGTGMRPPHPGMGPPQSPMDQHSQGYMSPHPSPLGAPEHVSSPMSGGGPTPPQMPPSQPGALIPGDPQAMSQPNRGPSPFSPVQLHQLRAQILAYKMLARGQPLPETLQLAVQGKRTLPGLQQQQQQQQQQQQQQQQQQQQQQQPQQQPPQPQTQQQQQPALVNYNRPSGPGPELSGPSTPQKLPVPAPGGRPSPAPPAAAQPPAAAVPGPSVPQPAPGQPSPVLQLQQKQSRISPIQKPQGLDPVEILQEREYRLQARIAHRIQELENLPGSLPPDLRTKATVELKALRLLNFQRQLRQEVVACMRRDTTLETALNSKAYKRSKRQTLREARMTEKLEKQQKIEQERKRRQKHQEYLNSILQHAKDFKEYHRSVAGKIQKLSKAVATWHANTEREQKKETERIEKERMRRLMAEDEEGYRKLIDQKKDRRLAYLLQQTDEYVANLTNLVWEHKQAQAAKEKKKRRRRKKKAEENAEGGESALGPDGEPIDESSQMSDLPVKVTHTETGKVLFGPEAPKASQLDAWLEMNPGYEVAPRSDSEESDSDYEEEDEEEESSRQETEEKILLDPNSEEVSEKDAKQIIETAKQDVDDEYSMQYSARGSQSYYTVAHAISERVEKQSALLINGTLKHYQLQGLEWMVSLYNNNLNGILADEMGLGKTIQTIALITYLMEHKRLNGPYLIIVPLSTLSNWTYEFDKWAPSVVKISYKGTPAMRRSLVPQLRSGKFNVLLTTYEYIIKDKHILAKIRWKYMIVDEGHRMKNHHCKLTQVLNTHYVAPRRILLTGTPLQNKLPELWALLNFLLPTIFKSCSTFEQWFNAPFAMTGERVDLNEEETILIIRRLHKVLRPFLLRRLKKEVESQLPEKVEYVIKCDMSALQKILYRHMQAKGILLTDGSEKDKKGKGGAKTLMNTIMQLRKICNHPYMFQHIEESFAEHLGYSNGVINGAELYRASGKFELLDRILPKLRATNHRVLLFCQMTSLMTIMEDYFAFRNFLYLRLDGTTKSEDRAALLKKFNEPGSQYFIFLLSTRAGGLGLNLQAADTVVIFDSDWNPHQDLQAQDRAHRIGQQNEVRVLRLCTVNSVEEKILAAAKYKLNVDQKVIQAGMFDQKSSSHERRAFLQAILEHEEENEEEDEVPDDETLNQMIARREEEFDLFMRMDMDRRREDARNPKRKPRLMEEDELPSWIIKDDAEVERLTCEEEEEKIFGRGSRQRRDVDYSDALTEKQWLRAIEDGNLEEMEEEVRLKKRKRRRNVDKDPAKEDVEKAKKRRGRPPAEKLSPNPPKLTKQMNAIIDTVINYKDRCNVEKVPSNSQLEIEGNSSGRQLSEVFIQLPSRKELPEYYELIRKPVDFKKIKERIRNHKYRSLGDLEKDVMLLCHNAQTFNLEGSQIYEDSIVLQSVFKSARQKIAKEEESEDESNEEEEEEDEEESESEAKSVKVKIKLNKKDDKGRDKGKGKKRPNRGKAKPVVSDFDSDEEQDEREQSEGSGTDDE

SMILES: CCOc1cc2cc(-c3ccccc3O)nnc2cc1N1CC2(CN(c3cc([C@H](C(=O)N4C[C@H](O)C[C@H]4C(=O)N[C@@H](C)c4ccc(-c5scnc5C)cc4)C(C)C)on3)C2)C1 [Compound 237, (2S,4R)-1-((R)-2-(3-(6-(6-ethoxy-3-(2-hydroxyphenyl)cinnolin-7-yl)-2,6-diazaspiro[3.3]heptan-2-yl)isoxazol-5-yl)-3-methylbutanoyl)-4-hydroxy-N-((S)-1-(4-(4-methylthiazol-5-yl)phenyl)ethyl)pyrrolidine-2-carboxamide]
- DC50 [1]: < 10 nM
- BRM HiBit Degradation Maximum (%) [1]: A (“A” indicates maximum degradation ≥75%)
- DC50 [2]: < 10 nM
- Dmax [2]: > 75%

SMILES: C#Cc1ccc(CNC(=O)[C@@H]2C[C@@H](O)CN2C(=O)[C@H](C(C)C)n2cc(N3CC4(CN(c5ccc6cc(-c7ccccc7O)nnc6c5)C4)C3)nn2)c(OC)c1 [Compound 238, (2S,4R)-N-(4-ethynyl-2-methoxybenzyl)-4-hydroxy-1-((S)-2-(4-(6-(3-(2-hydroxyphenyl)cinnolin-7-yl)-2,6-diazaspiro[3.3]heptan-2-yl)-1H-1,2,3-triazol-1-yl)-3-methylbutanoyl)pyrrolidine-2-carboxamide]
- DC50 [1]: < 10 nM
- BRM HiBit Degradation Maximum (%) [1]: A (“A” indicates maximum degradation ≥75%)
- Dmax [2]: < 50%

SMILES: C#Cc1cc2cc(-c3ccccc3O)nnc2cc1N1CC2(CN(c3cc([C@H](C(=O)N4C[C@H](O)C[C@H]4C(=O)N[C@@H](C)c4ccc(-c5scnc5C)cc4)C(C)C)on3)C2)C1 [Compound 239, (2S,4R)-1-((R)-2-(3-(6-(6-ethynyl-3-(2-hydroxyphenyl)cinnolin-7-yl)-2,6-diazaspiro[3.3]heptan-2-yl)isoxazol-5-yl)-3-methylbutanoyl)-4-hydroxy-N-((S)-1-(4-(4-methylthiazol-5-yl)phenyl)ethyl)pyrrolidine-2-carboxamide]
- DC50 [1]: < 10 nM
- BRM HiBit Degradation Maximum (%) [1]: A (“A” indicates maximum degradation ≥75%)
- DC50 [2]: > 10 nM
- Dmax [2]: > 50%

SMILES: C#Cc1cc(N2CC3(C2)CN(c2cc([C@H](C(=O)N4C[C@H](O)C[C@H]4C(=O)N[C@@H](C)c4ccc(-c5scnc5C)cc4)C(C)C)on2)C3)cc2nnc(-c3ccccc3O)cc12 [Compound 240, (2S,4R)-1-((R)-2-(3-(6-(5-ethynyl-3-(2-hydroxyphenyl)cinnolin-7-yl)-2,6-diazaspiro[3.3]heptan-2-yl)isoxazol-5-yl)-3-methylbutanoyl)-4-hydroxy-N-((S)-1-(4-(4-methylthiazol-5-yl)phenyl)ethyl)pyrrolidine-2-carboxamide]
- DC50 [1]: < 10 nM
- BRM HiBit Degradation Maximum (%) [1]: A (“A” indicates maximum degradation ≥75%)
- Dmax [2]: < 50%

SMILES: C#Cc1cc2nnc(-c3ccccc3O)cc2cc1N1CC2(CN(c3cc([C@H](C(=O)N4C[C@H](O)C[C@H]4C(=O)N[C@@H](C)c4ccc(-c5scnc5C)cc4)C(C)C)on3)C2)C1 [Compound 241, (2S,4R)-1-((R)-2-(3-(6-(7-ethynyl-3-(2-hydroxyphenyl)cinnolin-6-yl)-2,6-diazaspiro[3.3]heptan-2-yl)isoxazol-5-yl)-3-methylbutanoyl)-4-hydroxy-N-((S)-1-(4-(4-methylthiazol-5-yl)phenyl)ethyl)pyrrolidine-2-carboxamide]
- DC50 [1]: < 10 nM
- BRM HiBit Degradation Maximum (%) [1]: A (“A” indicates maximum degradation ≥75%)
- DC50 [2]: < 10 nM
- Dmax [2]: > 75%

SMILES: C#Cc1ccc(CNC(=O)[C@@H]2C[C@@H](O)CN2C(=O)[C@H](C(C)C)n2cc(N3CC4(CN(c5ccc6cc(-c7ccccc7O)nnc6c5)C4)C3)nn2)c(OCCCOC)c1 [Compound 242, (2S,4R)-N-(4-ethynyl-2-(3-methoxypropoxy)benzyl)-4-hydroxy-1-((S)-2-(4-(6-(3-(2-hydroxyphenyl)cinnolin-7-yl)-2,6-diazaspiro[3.3]heptan-2-yl)-1H-1,2,3-triazol-1-yl)-3-methylbutanoyl)pyrrolidine-2-carboxamide]
- DC50 [1]: < 10 nM
- BRM HiBit Degradation Maximum (%) [1]: A (“A” indicates maximum degradation ≥75%)
- DC50 [2]: < 10 nM
- Dmax [2]: > 50%

SMILES: Cc1ncsc1-c1ccc([C@H](C)NC(=O)[C@@H]2C[C@@H](O)CN2C(=O)[C@@H](c2cc(-c3cnc(N4CC5(CN(c6ccc7nnc(-c8ccccc8O)cc7c6)C5)C4)nc3)no2)C(C)C)cc1 [Compound 243, (2S,4R)-4-hydroxy-1-((R)-2-(3-(2-(6-(3-(2-hydroxyphenyl)cinnolin-6-yl)-2,6-diazaspiro[3.3]heptan-2-yl)pyrimidin-5-yl)isoxazol-5-yl)-3-methylbutanoyl)-N-((S)-1-(4-(4-methylthiazol-5-yl)phenyl)ethyl)pyrrolidine-2-carboxamide]
- DC50 [1]: < 10 nM
- BRM HiBit Degradation Maximum (%) [1]: A (“A” indicates maximum degradation ≥75%)
- DC50 [2]: < 10 nM
- Dmax [2]: > 75%

Continued, in another order:

- DC50 [1]: > 100 nM
- Dmax [2]: < 50%
SMILES: Cc1ncsc1-c1ccc([C@H](C)NC(=O)[C@@H]2C[C@@H](O)CN2C(=O)[C@@H](c2cc(N3CCC(N4CC5(CN(Cc6ccc7cc(-c8ccccc8O)nnc7c6)C5)C4)CC3)no2)C(C)C)cc1 [Compound 244, (2S,4R)-4-hydroxy-1-((R)-2-(3-(4-(6-((3-(2-hydroxyphenyl)cinnolin-7-yl)methyl)-2,6-diazaspiro[3.3]heptan-2-yl)piperidin-1-yl)isoxazol-5-yl)-3-methylbutanoyl)-N-((S)-1-(4-(4-methylthiazol-5-yl)phenyl)ethyl)pyrrolidine-2-carboxamide]
- BRM HiBit Degradation Maximum (%) [1]: B (“B” indicates maximum degradation ≥50%)

- DC50 [1]: > 10 nM
- Dmax [2]: < 50%
SMILES: Cc1ncsc1-c1ccc([C@H](C)NC(=O)[C@@H]2C[C@@H](O)CN2C(=O)[C@@H](c2cc(N3CC4(CN(Cc5ccc6nnc(-c7ccccc7O)cc6c5)C4)C3)no2)C(C)C)cc1 [Compound 245, (2S,4R)-4-hydroxy-1-((R)-2-(3-(6-((3-(2-hydroxyphenyl)cinnolin-6-yl)methyl)-2,6-diazaspiro[3.3]heptan-2-yl)isoxazol-5-yl)-3-methylbutanoyl)-N-((S)-1-(4-(4-methylthiazol-5-yl)phenyl)ethyl)pyrrolidine-2-carboxamide]
- BRM HiBit Degradation Maximum (%) [1]: B (“B” indicates maximum degradation ≥50%)

- DC50 [1]: < 10 nM
- Dmax [2]: < 50%
SMILES: Cc1ncsc1-c1ccc([C@H](C)NC(=O)[C@@H]2C[C@@H](O)CN2C(=O)[C@@H](c2cc(N3CC4(CN(c5ccc6cc(-c7cccc(F)c7O)nnc6c5)C4)C3)no2)C(C)C)cc1 [Compound 246, (2S,4R)-1-((R)-2-(3-(6-(3-(3-fluoro-2-hydroxyphenyl)cinnolin-7-yl)-2,6-diazaspiro[3.3]heptan-2-yl)isoxazol-5-yl)-3-methylbutanoyl)-4-hydroxy-N-((S)-1-(4-(4-methylthiazol-5-yl)phenyl)ethyl)pyrrolidine-2-carboxamide]
- BRM HiBit Degradation Maximum (%) [1]: A (“A” indicates maximum degradation ≥75%)

- DC50 [1]: < 10 nM
- DC50 [2]: < 10 nM
- Dmax [2]: > 75%
SMILES: Cc1ncsc1-c1ccc([C@H](C)NC(=O)[C@@H]2C[C@@H](O)CN2C(=O)C(C(C)C)n2cc(N3CCN(CC4CCN(c5ccc6cc(-c7ccccc7O)nnc6c5)CC4)CC3)nn2)cc1 (stereo partly drawn) [Compound 247, (2S,4R)-4-hydroxy-1-(2-(4-(4-((1-(3-(2-hydroxyphenyl)cinnolin-7-yl)piperidin-4-yl)methyl)piperazin-1-yl)-1H-1,2,3-triazol-1-yl)-3-methylbutanoyl)-N-((S)-1-(4-(4-methylthiazol-5-yl)phenyl)ethyl)pyrrolidine-2-carboxamide]
- BRM HiBit Degradation Maximum (%) [1]: A (“A” indicates maximum degradation ≥75%)

- DC50 [1]: < 10 nM
- DC50 [2]: > 10 nM
- Dmax [2]: > 75%
SMILES: Cc1ncsc1-c1ccc([C@H](C)NC(=O)[C@@H]2C[C@@H](O)CN2C(=O)C(C(C)C)n2cc(N3CCC4CCN(c5ccc6cc(-c7ccccc7O)nnc6c5)C4C3)nn2)cc1 (stereo partly drawn) [Compound 248, (2S,4R)-4-hydroxy-1-(2-(4-(1-(3-(2-hydroxyphenyl)cinnolin-7-yl)octahydro-6H-pyrrolo[2,3-c]pyridin-6-yl)-1H-1,2,3-triazol-1-yl)-3-methylbutanoyl)-N-((S)-1-(4-(4-methylthiazol-5-yl)phenyl)ethyl)pyrrolidine-2-carboxamide]
- BRM HiBit Degradation Maximum (%) [1]: A (“A” indicates maximum degradation ≥75%)

- DC50 [1]: > 10 nM
- DC50 [2]: > 100 nM
- Dmax [2]: > 75%
SMILES: Cc1ncsc1-c1ccc([C@H](C)NC(=O)[C@@H]2C[C@@H](O)CN2C(=O)C(C(C)C)n2cc(N3CC4CCN(c5ccc6cc(-c7ccccc7O)nnc6c5)CC43)nn2)cc1 (stereo partly drawn) [Compound 249, (2S,4R)-4-hydroxy-1-(2-(4-(3-(3-(2-hydroxyphenyl)cinnolin-7-yl)-3,8-diazabicyclo[4.2.0]octan-8-yl)-1H-1,2,3-triazol-1-yl)-3-methylbutanoyl)-N-((S)-1-(4-(4-methylthiazol-5-yl)phenyl)ethyl)pyrrolidine-2-carboxamide]
- BRM HiBit Degradation Maximum (%) [1]: A (“A” indicates maximum degradation ≥75%)

- DC50 [1]: < 10 nM
- DC50 [2]: < 10 nM
- Dmax [2]: > 75%
SMILES: Cc1ncsc1-c1ccc([C@H](C)NC(=O)[C@@H]2C[C@@H](O)CN2C(=O)C(C(C)C)n2cc(N3CC4CN(c5ccc6cc(-c7ccccc7O)nnc6c5)CCC43)nn2)cc1 (stereo partly drawn) [Compound 250, (2S,4R)-4-hydroxy-1-(2-(4-(3-(3-(2-hydroxyphenyl)cinnolin-7-yl)-3,7-diazabicyclo[4.2.0]octan-7-yl)-1H-1,2,3-triazol-1-yl)-3-methylbutanoyl)-N-((S)-1-(4-(4-methylthiazol-5-yl)phenyl)ethyl)pyrrolidine-2-carboxamide]
- BRM HiBit Degradation Maximum (%) [1]: A (“A” indicates maximum degradation ≥75%)
